The source of these data is patent US20220080056A1, “DENDRIMER COMPOSITIONS AND USE IN TREATMENT OF NECROTIZING ENTEROCOLITIS AND OTHER GASTROINTESTINAL DISORDERS” (The Johns Hopkins University, priority 2015, published 2022).

One data set relates to LPS signaling. To be noted: human ileum resected from infants with NEC; cited from earlier work.
The next data set addresses T1, TLR4 co-receptor MD-2 (Homo sapiens, UniProt Q9Y6Y9).
T1 sequence (Q9Y6Y9 19-160): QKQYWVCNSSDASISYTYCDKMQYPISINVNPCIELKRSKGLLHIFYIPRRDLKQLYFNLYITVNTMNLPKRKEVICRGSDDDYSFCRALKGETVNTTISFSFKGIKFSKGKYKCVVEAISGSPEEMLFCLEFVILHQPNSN
The note with it: cited from earlier work.

For another data set, the system named is TLR4. To be noted: enterocytes and macrophages in vitro; cited from earlier work.
In a further data set the test system is systemic inflammation. The note with it: mouse models of endotoxemia and necrotizing enterocolitis; cited from earlier work.
In another data set the test system is LPS-induced brain injury. In words: LPS-induced brain injury in a neonatal rabbit model of cerebral palsy. The data set is classed as in vivo. The procedure:
The therapeutic efficacy of G4-PAMAM-S--S-NAC dendrimer conjugate was evaluated after two days of animal treatment with lipopolysaccharide (LPS) to induce white matter injury and hypomyelination in the developing rabbit brain (an animal model of Cerebral Palsy). […] This supports a conclusion that the G4-PAMAM-S--S-NAC traversed across the BBB. The targeted delivery of NAC from dendrimer complex to actived microglial cells improved the motor deficits and attenuated recovery from the LPS-induced brain injury in a neonatal rabbit model of cerebral palsy.
(§1) Treatment with G4-PAMAM-S--S-NAC dendrimer complexes reduced white matter injury and microglia activation. […] This activity of the dendrimer-NAC conjugates may be attributed to its ability to interfere with the early inflammatory responses by blocking or modifying the signal transduction factor NF-.kappa.B and nitrotyrosine, thereby modulating cellular activation. 6 and 8 arm PEG-NAC conjugates released 74% of NAC in the intracellular GSH concentration (2 and 10 mM), within 2 hours. At a concentration range of between 0.008-0.8 mM, the conjugates were nontoxic to the microglial cells. […] At the highest concentration (5 mM), the free drug reduced the H2O2 levels and nitrite levels by 30-40%, whereas the conjugates reduced the H2O2 and nitrite levels by more than 70%. […] PEGylated NAC is a dendrimer complex with utility for the pharmaceutical industry, as PEGs are approved for human use and this device addresses limitations of NAC and provides greater efficacy.

The conditions of data set [1]: free drug; cited from earlier work.
In another data set the test system is microglial cells. Put plainly: GSH depletion, ROS, H2O2 and NO/nitrite production. The note with it: highest concentration (5 mM). The format is cell-based. How it is done: as §1
Data set [2] concerns TLR4-mediated inflammatory signaling. To be noted: SAR study of C34 analogs; cited from earlier work.
Where [3] appears, read: compared to kits treated with saline.

As for `CC(=O)N[C@H]1[C@@H](OC(C)C)O[C@H](COC(C)=O)[C@@H](OC(C)=O)[C@@H]1OC(C)=O` [C34], the LPS signaling ex-vivo result in the data set on LPS signaling is on record as “inhibited”. For the same compound, the “docking fit to hydrophobic internal pocket of MD-2” value on TLR4 co-receptor MD-2 was “tight fit”. For the same compound, in the data set with TLR4, the TLR4 inhibition result is “inhibits”. Besides, the systemic inflammation result with systemic inflammation is given as “reduces”.
Consider `CC(=O)N[C@@H](CS)C(=O)O` [NAC, N-acetyl cysteine], for which, in the data set on LPS-induced brain injury (LPS-induced brain injury), the “dose eliciting identical responses” value is listed as 100 mg/kg. Moreover, in the data set on LPS-induced brain injury (setting [3]), the fetal inflammation response entry is on record as “decrease” and the motor deficits entry is recorded as “improvement”. Further, in data set [1], the bioavailability entry was “low” and the plasma protein binding result is given as “very high”. For the same compound, in the data set with microglial cells, the “reduction of H2O2 levels” value is given as 30-40% and the “reduction of nitrite levels” value is recorded as 30-40%.
As for `CC(=O)N[C@H]1[C@@H](OC(C)C)O[C@H](CO)[C@H](O)[C@@H]1O` [compound 17, isopropyl 2-acetamido-α-galactoside], the “efficacy relative to C34 series” value in data set [2] was “more efficacious”.
